Data from PubChem BioAssay (NCI).
Several values for one entry are separate records, joined by “and”; a condition that tells them apart may be missing. Identical values can stand only once.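 Assay format: 96-well plates, 48-hour exposure. At the GI50, growth is halved. At the TGI there is no net growth.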

Assays:
Experiment in all cases: NCI-60 cell line screen, 48 h
CAKI-1 renal = test system: CAKI-1 renal
HCT-116 colon = test system: HCT-116 colon
KM12 colon = test system: KM12 colon
MDA-MB-231 breast = test system: MDA-MB-231 breast
NCI-H460 lung = test system: NCI-H460 lung
PC-3 prostate = test system: PC-3 prostate
SF-268 CNS = test system: SF-268 CNS
SK-MEL-28 melanoma = test system: SK-MEL-28 melanoma
SK-OV-3 ovarian = test system: SK-OV-3 ovarian
TK-10 renal = test system: TK-10 renal

With Cc1ccc2cnc(N)c(C#Cc3cc(C(=O)Nc4ccc(CN5CCN(C)CC5)c(C(F)(F)F)c4)cnc3C)c2c1 the GI50 (CAKI-1 renal) was 0.476 µM, the TGI (CAKI-1 renal) was 1.1 µM and the GI50 (HCT-116 colon) was 0.513 µM. The TGI (HCT-116 colon) was 1.39 µM, the GI50 (KM12 colon) was 0.005 µM and the TGI (KM12 colon) was 1.02 µM. The GI50 (MDA-MB-231 breast) was 0.29 µM, the TGI (MDA-MB-231 breast) was 1.06 µM and the GI50 (NCI-H460 lung) was 0.604 µM. The TGI (NCI-H460 lung) was 1.34 µM, the GI50 (PC-3 prostate) was 0.734 µM and the TGI (PC-3 prostate) was 1.56 µM. The GI50 (SF-268 CNS) was 0.559 µM, the TGI (SF-268 CNS) was 1.27 µM and the GI50 (SK-MEL-28 melanoma) was 0.609 µM. The TGI (SK-MEL-28 melanoma) was 1.36 µM, the GI50 (SK-OV-3 ovarian) was 1.61 µM and the TGI (SK-OV-3 ovarian) was 4.19 µM. It also gave a GI50 (TK-10 renal) of 0.731 µM and a TGI (TK-10 renal) of 1.48 µM.
In the case of O=S(=O)(/N=c1\scc(-c2ccccc2)n1-c1ccccc1)c1ccc(N2N=C3c4ccccc4CC3C2c2ccc(Cl)cc2)cc1 (stereo not drawn), the GI50 (CAKI-1 renal) is reported as 46.4 µM, the TGI (CAKI-1 renal) is reported as > 100 µM and the GI50 (HCT-116 colon) is reported as 47.5 µM. The TGI (HCT-116 colon) was > 100 µM, the GI50 (KM12 colon) was 19.9 µM and the TGI (KM12 colon) was 89 µM. The GI50 (MDA-MB-231 breast) was 70 µM, the TGI (MDA-MB-231 breast) was > 100 µM and the GI50 (NCI-H460 lung) was > 100 µM. For the same compound, the TGI (NCI-H460 lung) was > 100 µM, the GI50 (PC-3 prostate) was 19.1 µM and the TGI (PC-3 prostate) was > 100 µM. The GI50 (SF-268 CNS) was > 100 µM, the TGI (SF-268 CNS) was > 100 µM and the GI50 (SK-MEL-28 melanoma) was 67.7 µM. The TGI (SK-MEL-28 melanoma) was > 100 µM, the GI50 (SK-OV-3 ovarian) was 76.2 µM and the TGI (SK-OV-3 ovarian) was > 100 µM. The GI50 (TK-10 renal) was 29.6 µM and the TGI (TK-10 renal) was > 100 µM.
In the case of COc1cc(/C=C/C(=O)/C=C/c2cc(OC)c3c(c2)OCO3)cc2c1OCO2, the GI50 (CAKI-1 renal) is reported as > 100 µM, the TGI (CAKI-1 renal) is reported as > 100 µM and the GI50 (HCT-116 colon) is reported as 1.21 µM. For the same compound, the TGI (HCT-116 colon) was 2.78 µM, the GI50 (KM12 colon) was 1.98 µM and the TGI (KM12 colon) was 4.07 µM. For the same compound, the GI50 (MDA-MB-231 breast) was 7.89 µM, the TGI (MDA-MB-231 breast) was > 100 µM and the GI50 (NCI-H460 lung) was > 100 µM. The TGI (NCI-H460 lung) was > 100 µM, the GI50 (PC-3 prostate) was 72.2 µM and the TGI (PC-3 prostate) was > 100 µM. For the same compound, the GI50 (SF-268 CNS) was 5.47 µM, the TGI (SF-268 CNS) was > 100 µM and the GI50 (SK-MEL-28 melanoma) was 39 µM. For the same compound, the TGI (SK-MEL-28 melanoma) was > 100 µM, the GI50 (SK-OV-3 ovarian) was 3.46 µM and the TGI (SK-OV-3 ovarian) was 48.2 µM. For the same compound, the GI50 (TK-10 renal) was 30.3 µM and the TGI (TK-10 renal) was > 100 µM.
For COc1ccc2c(c1)C(=O)/C(=C/c1cccc(OCC(=O)c3ccccc3)c1)CC2, the GI50 (CAKI-1 renal) was 13 µM, the TGI (CAKI-1 renal) was > 100 µM and the GI50 (HCT-116 colon) was 3.52 µM. The TGI (HCT-116 colon) was > 100 µM, the GI50 (KM12 colon) was 6.92 µM and the TGI (KM12 colon) was > 100 µM. The GI50 (MDA-MB-231 breast) was 69.9 µM, the TGI (MDA-MB-231 breast) was > 100 µM and the GI50 (NCI-H460 lung) was 28.1 µM. For the same compound, the TGI (NCI-H460 lung) was > 100 µM, the GI50 (PC-3 prostate) was 4.92 µM and the TGI (PC-3 prostate) was > 100 µM. For the same compound, the GI50 (SF-268 CNS) was 45.2 µM, the TGI (SF-268 CNS) was > 100 µM and the GI50 (SK-MEL-28 melanoma) was 32.8 µM. The TGI (SK-MEL-28 melanoma) was > 100 µM, the GI50 (SK-OV-3 ovarian) was 62.9 µM and the TGI (SK-OV-3 ovarian) was > 100 µM. For the same compound, the GI50 (TK-10 renal) was > 100 µM and the TGI (TK-10 renal) was > 100 µM.
For Cc1ccc(S(=O)(=O)SC/C=C\CSS(=O)(=O)c2ccc(C)cc2)cc1, the TGI (CAKI-1 renal) was 88.9 µM and 45.7 µM, the GI50 (HCT-116 colon) was 5.31 µM and 19.9 µM and the TGI (HCT-116 colon) was 29.7 µM and 41.4 µM. For the same compound, the TGI (KM12 colon) was > 100 µM and 30.4 µM, the TGI (MDA-MB-231 breast) was > 31.6 µM and the TGI (NCI-H460 lung) was > 94 µM and 99.4 µM. For the same compound, the TGI (PC-3 prostate) was > 100 µM, the TGI (SF-268 CNS) was > 73.2 µM and 74.4 µM and the GI50 (SK-MEL-28 melanoma) was 39.7 µM and 18.8 µM. The TGI (SK-MEL-28 melanoma) was > 78.8 µM and 35.5 µM, the TGI (SK-OV-3 ovarian) was 98.9 µM and 83.2 µM and the GI50 (TK-10 renal) was 50 µM and 20.4 µM. The TGI (TK-10 renal) was > 100 µM and 45.5 µM.
In the case of CCOc1ccccc1CCN=C1NC(=O)/C(=C/c2ccc3ncccc3c2)S1, the GI50 (CAKI-1 renal) is reported as 0.75 µM, the TGI (CAKI-1 renal) is reported as > 7.13 µM and the GI50 (HCT-116 colon) is reported as 0.995 µM. The TGI (HCT-116 colon) was > 9.15 µM, the GI50 (KM12 colon) was 0.725 µM and the TGI (KM12 colon) was 10.1 µM. It also gave a GI50 (MDA-MB-231 breast) of 4.24 µM, a TGI (MDA-MB-231 breast) of 18.6 µM and a GI50 (NCI-H460 lung) of 0.879 µM. For the same compound, the TGI (NCI-H460 lung) was > 25 µM, the GI50 (PC-3 prostate) was 0.562 µM and the TGI (PC-3 prostate) was 3.99 µM. For the same compound, the GI50 (SF-268 CNS) was 1.35 µM, the TGI (SF-268 CNS) was > 25 µM and the GI50 (SK-MEL-28 melanoma) was 5.22 µM. The TGI (SK-MEL-28 melanoma) was > 24.1 µM, the GI50 (SK-OV-3 ovarian) was 1.81 µM and the TGI (SK-OV-3 ovarian) was 8.46 µM. The GI50 (TK-10 renal) was 1.35 µM and the TGI (TK-10 renal) was > 23.3 µM.
In the case of O=C(Oc1cccnc1)c1cccnc1Nc1ccnc(C(F)(F)F)c1, the GI50 (CAKI-1 renal) is reported as 4.73 µM, the TGI (CAKI-1 renal) is reported as 30.2 µM and the GI50 (HCT-116 colon) is reported as 1.76 µM. For the same compound, the TGI (HCT-116 colon) was 3.71 µM, the GI50 (KM12 colon) was 4.01 µM and the TGI (KM12 colon) was 18.2 µM. The GI50 (MDA-MB-231 breast) was 14.1 µM, the TGI (MDA-MB-231 breast) was > 100 µM and the GI50 (NCI-H460 lung) was 40.4 µM. The TGI (NCI-H460 lung) was > 100 µM, the GI50 (PC-3 prostate) was 7.03 µM and the TGI (PC-3 prostate) was 56.1 µM. The GI50 (SF-268 CNS) was 5.63 µM, the TGI (SF-268 CNS) was > 100 µM and the GI50 (SK-MEL-28 melanoma) was 38.1 µM. For the same compound, the TGI (SK-MEL-28 melanoma) was > 100 µM, the GI50 (SK-OV-3 ovarian) was > 100 µM and the TGI (SK-OV-3 ovarian) was > 100 µM. The GI50 (TK-10 renal) was 17.2 µM and the TGI (TK-10 renal) was > 100 µM.
In the case of O=C(NCC1CC1)c1ccc(-c2cccc(C(=O)NC3CC3)c2)cc1, the GI50 (CAKI-1 renal) is reported as > 25 µM, the TGI (CAKI-1 renal) is reported as > 25 µM and the GI50 (HCT-116 colon) is reported as > 25 µM. For the same compound, the TGI (HCT-116 colon) was > 25 µM, the GI50 (KM12 colon) was > 25 µM and the TGI (KM12 colon) was > 25 µM. The GI50 (MDA-MB-231 breast) was > 25 µM, the TGI (MDA-MB-231 breast) was > 25 µM and the GI50 (NCI-H460 lung) was > 25 µM. For the same compound, the TGI (NCI-H460 lung) was > 25 µM, the GI50 (PC-3 prostate) was > 25 µM and the TGI (PC-3 prostate) was > 25 µM. For the same compound, the GI50 (SF-268 CNS) was > 25 µM, the TGI (SF-268 CNS) was > 25 µM and the GI50 (SK-MEL-28 melanoma) was > 25 µM. For the same compound, the TGI (SK-MEL-28 melanoma) was > 25 µM, the GI50 (SK-OV-3 ovarian) was > 25 µM and the TGI (SK-OV-3 ovarian) was > 25 µM. The GI50 (TK-10 renal) was > 25 µM and the TGI (TK-10 renal) was > 25 µM.
With Clc1ccc(-c2cn3ccnc3c(-c3ccc(Cl)cc3)n2)cc1 the GI50 (CAKI-1 renal) was 4.23 µM, the TGI (CAKI-1 renal) was 46 µM and the GI50 (HCT-116 colon) was 12.2 µM. For the same compound, the TGI (HCT-116 colon) was > 100 µM, the GI50 (KM12 colon) was 5.33 µM and the TGI (KM12 colon) was 37.9 µM. It also gave a GI50 (MDA-MB-231 breast) of 7.04 µM, a TGI (MDA-MB-231 breast) of 47 µM and a GI50 (NCI-H460 lung) of 19.9 µM. For the same compound, the TGI (NCI-H460 lung) was > 100 µM, the GI50 (PC-3 prostate) was 19.6 µM and the TGI (PC-3 prostate) was > 100 µM. The GI50 (SF-268 CNS) was 15.4 µM, the TGI (SF-268 CNS) was > 100 µM and the GI50 (SK-MEL-28 melanoma) was > 100 µM. For the same compound, the TGI (SK-MEL-28 melanoma) was > 100 µM, the GI50 (SK-OV-3 ovarian) was 82.8 µM and the TGI (SK-OV-3 ovarian) was > 100 µM. It also gave a GI50 (TK-10 renal) of 22.6 µM and a TGI (TK-10 renal) of 73.5 µM.
